In patent EP0240392A1, “Compounds of the cyclophosphazene type, process for their preparation and pharmaceutical preparation containing them” (CENTRE NATIONAL DE LA RECHERCHE SCIENTIFIQUE (CNRS), priority 1986, dated 1987):
Marks after values point to notes of the source that are not given here.

Legend:
ERYTH[…] K562 = experiment: Growth of human erythroleukemia K562 in vitro; format: cell-based, humaine
[1] = Acute toxicity i.p. in mice (DLo, maximal non-lethal dose); format: in vivo, souris mâles Swiss ou CD2F1
Method: La toxicité de SPM a été déterminée sur des souris mâles Swiss ou CD2F1. La léthalité, quand elle existe, apparaît systématiquement aux jours 5 et 6 après l'adminstration par voie i.p. L'enregistrement de cette léthalité en fonction de la dose injectée permet de déduire la DLo qui est la dose maximale non léthale. La même valeur de DLo a été obtenue chez les Swiss et les CD2F1 : elle a été trouvée égale à 1 500 mg/kg. C'est là un résultat remarquable.

MELANOME B16 = experiment: Antitumour activity on B16 melanoma implanted i.m. in mice; format: in vivo, souris C57B1/6
Description: (§1) Les tests d'activité antitumorale ont été conduits au sein du Screening and Pharmacology Group de l'E.O.R.T.C., implanté à l'Institut Mario Negri de Milan.
(§2) Ces essais ont été conduits soit en mono-injection à différentes doses au jour J+1 suivant la greffe de la tumeur, soit en poly-injections chroniques Q1D, soit en protocoles Q4D.
(§3) L'activité antitumorale est mesurée par le rapport T/C %, T (en jours) étant le durée moyenne de vie des souris traitées, C (en jours) étant la durée moyenne de vie des souris témoins.
(§4) L'effet thérapeutique est considéré comme significatif quant T/C % est supérieur ou égal à 125.

[2] = system: LEUCEMIE P388 INTRACEREBRALE; experiment: Antitumour activity on intracerebral P388 leukemia in mice; format: in vivo, souris CD2F1; conditions: Tableau 2, inoculation i.c.
Description: as §1, §2, §3, §4

[3] = system: CARCINOME MAMMAIRE LIGNEE 16; experiment: Antitumour activity on mammary carcinoma line 16 implanted i.m. in mice; format: in vivo, souris 3CH
Description: as §1, §2, §3, §4

[4] = 200 mg/kg i.p. j 1,5,9, jour 27
[5] = 300 mg/kg i.p. j 1,5,9, jour 27
[6] = 200 mg/kg i.p. j 1,5,9, jour 26
[7] = 300 mg/kg i.p. j 1,5,9, jour 26

SMILES: C(CCN1CCCNP12=NP(N1CC1)(N1CC1)=NP(N1CC1)(N1CC1)=N2)CN1CCCNP12=NP(N1CC1)(N1CC1)=NP(N1CC1)(N1CC1)=N2 (centres unmarked) [SPM]
- Nombre de cellules x 10^4 (ERYTH[…] K562; 5 µg/ml, 48 heures): 20,9 ± 2,1 x 10^4
- Nombre de cellules x 10^4 (ERYTH[…] K562; 5 µg/ml, 72 heures): 35,5 ± 2,0 x 10^4
- Nombre de cellules x 10^4 (ERYTH[…] K562; 10 µg/ml, 24 heures): 17,4 ± 0,9 x 10^4
- Nombre de cellules x 10^4 (ERYTH[…] K562; 10 µg/ml, 48 heures): 21,1 ± 0,2 x 10^4
- Nombre de cellules x 10^4 (ERYTH[…] K562; 10 µg/ml, 72 heures): 26,9 ± 2,3 x 10^4
- Nombre de cellules x 10^4 (ERYTH[…] K562; 50 µg/ml, 24 heures): 13,2 ± 1,7 x 10^4
- Nombre de cellules x 10^4 (ERYTH[…] K562; 50 µg/ml, 48 heures): 15,0 ± 1,5 x 10^4
- Nombre de cellules x 10^4 (ERYTH[…] K562; 50 µg/ml, 72 heures): 17,4 ± 1,3 x 10^4
- Nombre de cellules x 10^4 (ERYTH[…] K562; 100 µg/ml, 24 heures): 11,6 ± 0,4 x 10^4
- Nombre de cellules x 10^4 (ERYTH[…] K562; 100 µg/ml, 48 heures): 14,7 ± 0,1 x 10^4
- Nombre de cellules x 10^4 (ERYTH[…] K562; 100 µg/ml, 72 heures): 15,0 ± 0,8 x 10^4
- effet sur la croissance in vitro de l'érythroleucémie humaine K562 (result in words) (ERYTH[…] K562; in vitro, MYCLAz: même à dose toxique): inhibe d'une manière très remarquable la croissance in vitro
- amplitude de la plage de doses à effet significatif (ERYTH[…] K562; ratio of highest to lowest significant dose): ≥ 10 000
- DLo (dose maximale non léthale) ([1]; souris mâles CD2F1, i.p.): 1 500 mg/kg
- DLo (dose maximale non léthale) ([1]; souris mâles Swiss, i.p.): 1 500 mg/kg
- T/C (%) (MELANOME B16; 100 mg/kg i.p. j 1-9): 103%
- Volume moyen de la tumeur (cm^3 ± S.E.) (MELANOME B16; 100 mg/kg i.p. j 1-9, jour 17): 1,01±0,15 cm^3
- Volume moyen de la tumeur (cm^3 ± S.E.) (MELANOME B16; 100 mg/kg i.p. j 1-9, jour 20): 1,71±0,13* cm^3
- Volume moyen de la tumeur (cm^3 ± S.E.) (MELANOME B16; 100 mg/kg i.p. j 1-9, jour 24): 3,39±0,34* cm^3
- Volume moyen de la tumeur (cm^3 ± S.E.) (MELANOME B16; 100 mg/kg i.p. j 1-9, jour 27): 3,75±0,29 cm^3
- nombre de souris vivantes/total (MELANOME B16; 100 mg/kg i.p. j 1-9, jour 27): 9/10
- T/C (%) (MELANOME B16; 200 mg/kg i.p. j 1,5,9): 120%
- Volume moyen de la tumeur (cm^3 ± S.E.) (MELANOME B16; 200 mg/kg i.p. j 1,5,9, jour 13): 0,52±0,08* cm^3
- Volume moyen de la tumeur (cm^3 ± S.E.) (MELANOME B16; 200 mg/kg i.p. j 1,5,9, jour 17): 1,17±0,14* cm^3
- Volume moyen de la tumeur (cm^3 ± S.E.) (MELANOME B16; 200 mg/kg i.p. j 1,5,9, jour 20): 1,66±0,15* cm^3
- Volume moyen de la tumeur (cm^3 ± S.E.) (MELANOME B16; 200 mg/kg i.p. j 1,5,9, jour 24): 3,72±0,29* cm^3
- Volume moyen de la tumeur (cm^3 ± S.E.) (MELANOME B16; [4]): 4,98±0,56 cm^3
- nombre de souris vivantes/total (MELANOME B16; [4]): 8/10
- T/C (%) (MELANOME B16; 200 mg/kg i.p. j 1-9): 138%
- Volume moyen de la tumeur (cm^3 ± S.E.) (MELANOME B16; 200 mg/kg i.p. j 1-9, jour 20): 0,12±0,08* cm^3
- Volume moyen de la tumeur (cm^3 ± S.E.) (MELANOME B16; 200 mg/kg i.p. j 1-9, jour 24): 1,22±0,17* cm^3
- Volume moyen de la tumeur (cm^3 ± S.E.) (MELANOME B16; 200 mg/kg i.p. j 1-9, jour 27): 2,06±0,23 cm^3
- nombre de souris vivantes/total (MELANOME B16; 200 mg/kg i.p. j 1-9, jour 27): 9/9
- T/C (%) (MELANOME B16; 300 mg/kg i.p. j 1,5,9): 104%
- Volume moyen de la tumeur (cm^3 ± S.E.) (MELANOME B16; 300 mg/kg i.p. j 1,5,9, jour 13): 0,44±0,06* cm^3
- Volume moyen de la tumeur (cm^3 ± S.E.) (MELANOME B16; 300 mg/kg i.p. j 1,5,9, jour 17): 1,72±0,12* cm^3
- Volume moyen de la tumeur (cm^3 ± S.E.) (MELANOME B16; 300 mg/kg i.p. j 1,5,9, jour 20): 2,67±0,24* cm^3
- Volume moyen de la tumeur (cm^3 ± S.E.) (MELANOME B16; 300 mg/kg i.p. j 1,5,9, jour 24): 5,36±0,42* cm^3
- Volume moyen de la tumeur (cm^3 ± S.E.) (MELANOME B16; [5]): 5,96±0,22 cm^3
- nombre de souris vivantes/total (MELANOME B16; [5]): 6/10
- T/C (%) ([2]; 100 mg/kg i.p. x 9 (j 1 à 9)): 141%
- T/C (%) ([2]; 150 mg/kg i.p. x 9 (j 1 à 9)): 123%
- T/C (%) ([2]; 200 mg/kg i.p. x 9 (j 1 à 9)): 129%
- toxicity of the regimen (result in words) ([3]; 100 mg/kg i.p. j 1-9): TOXIQUE
- T/C (%) ([3]; 200 mg/kg i.p. j 1,5,9): 105%
- Volume moyen de la tumeur (cm^3 ± S.E.) ([3]; 200 mg/kg i.p. j 1,5,9, jour 15): 0,37±0,05* cm^3
- Volume moyen de la tumeur (cm^3 ± S.E.) ([3]; 200 mg/kg i.p. j 1,5,9, jour 19): 1,70±0,24* cm^3
- Volume moyen de la tumeur (cm^3 ± S.E.) ([3]; 200 mg/kg i.p. j 1,5,9, jour 22): 2,43±0,31* cm^3
- Volume moyen de la tumeur (cm^3 ± S.E.) [3, 6]: 3,71±0,46 cm^3
- nombre d'animaux vivants/total [3, 6]: 9/10
- toxicity of the regimen (result in words) ([3]; 200 mg/kg i.p. j 1-9): TOXIQUE
- T/C (%) ([3]; 300 mg/kg i.p. j 1,5,9): 94%
- Volume moyen de la tumeur (cm^3 ± S.E.) ([3]; 300 mg/kg i.p. j 1,5,9, jour 19): 0,24±0,14* cm^3
- Volume moyen de la tumeur (cm^3 ± S.E.) ([3]; 300 mg/kg i.p. j 1,5,9, jour 22): 0,45±0,28* cm^3
- Volume moyen de la tumeur (cm^3 ± S.E.) [3, 7]: 2,24±0,31 cm^3
- nombre d'animaux vivants/total [3, 7]: 3/10
